# Data reported in patent publication US9394562B2, “Soil microorganism, novel oxidoreductase separated from the soil microorganism, gene encoding the oxidoreductase, and method for producing aglycones using the microorganism, the oxidoreductase and the gene” (AMOREPACIFIC CORPORATION, priority 2010, dated 2016).
# How the values were obtained:
# Assay type in all cases: biochemical
# [1] = test system: deglycosylating enzyme isolated from the selected Rhizobium sp. GIN611; test: Substrate specificity of deglycosylating enzyme isolated from Rhizobium sp. GIN611; details: ginsenoside as substrate
# Source text: Investigation of the substrate specificity using a deglycosylating enzyme isolated from the selected Rhizobium sp. […] The inventors of the present disclosure have disrupted and centrifuged the microorganism and produced a cell extract comprising the active enzyme from a supernatant.
# [2] = test system: oxidoreductase enzyme derived from Rhizobium sp. GIN611; test: Substrate specificity for glycone binding (α-/β-bonding); details: nitrophenyl glycoside used as substrate of the enzyme
# Source text: Specificity of the enzyme for α-bonding and β-bonding was investigated using 4-nitrophenyl α-D-glucopyranoside, 4-nitrophenyl β-D-glucopyranoside, 4-nitrophenyl α-D-galactopyranoside and p-nitrophenyl β-D-galactopyranoside.
# [3] = test system: oxidoreductase enzyme derived from Rhizobium sp. GIN611; test: Deglycosylation activity for flavonoid glycoside substrates by MALDI mass spectrometry; details: flavonoid glycoside as substrate
# Source text: After reacting using ginsenoside Rh2, ginsenoside F2, ginsenoside Rb1, ginsenoside Rb2, ginsenoside Rc, ginsenoside Rb3, ginsenoside F1, ginsenoside Re or the isoflavone daidzin as a substrate, followed by extraction by adding the same volume of ethyl acetate, the ethyl acetate layer was dried and then dissolved again in ethanol, which was subjected to activity measurement by MALDI mass spectrometry.
# The oxidoreductase enzyme derived from Rhizobium sp. GIN611, whose expression was induced, was reacted with the flavonoid icariin, camelliaside A or camelliaside B as a substrate in the manner described above and activity was measured by MALDI mass spectrometry. Oxidation of galactose attached to camelliaside A and deglycosylation activity thereof were identified. Also, oxidation of xylose attached to camelliaside B and deglycosylation activity thereof were identified. That is to say, the enzyme was confirmed to show deglycosylation activity for sugars attached to the flavonoid-based aglycones and to capable of degrading not only glucose but also galactose and xylose by oxidizing them (see FIGS. 12 and 13).
Relative activity (%) [2] [%],Structure (SMILES),also measured
103,O=[N+]([O-])c1ccc(O[C@H]2O[C@H](CO)[C@@H](O)[C@H](O)[C@H]2O)cc1 [p-Nitrophenyl α-D-glucopyranoside],–
100,O=[N+]([O-])c1ccc(O[C@@H]2O[C@H](CO)[C@@H](O)[C@H](O)[C@H]2O)cc1 [p-Nitrophenyl β-D-glucopyranoside],–
201,O=[N+]([O-])c1ccc(O[C@H]2O[C@H](CO)[C@H](O)[C@H](O)[C@H]2O)cc1 [p-Nitrophenyl α-D-galactopyranoside],–

# The remaining lines, values behind:
Structure (SMILES),Relative activity (%) [2] [%],also measured
"CC(C)=CCC[C@](C)(O[C@@H]1O[C@H](CO)[C@@H](O)[C@H](O)[C@H]1O)[C@H]1CC[C@]2(C)[C@@H]1[C@H](O)C[C@@H]1[C@@]3(C)CC[C@H](O)C(C)(C)[C@@H]3CC[C@]12C [ginsenoside CK, 20-O-β-D-glucopyranosyl-20(S)-protopanaxadiol]",–,activity for substrate [1]: high activity
O=[N+]([O-])c1ccc(O[C@@H]2O[C@H](CO)[C@H](O)[C@H](O)[C@H]2O)cc1 [p-Nitrophenyl β-D-galactopyranoside],400,–
"C[C@@H]1O[C@@H](OC[C@H]2O[C@@H](Oc3c(-c4ccc(O)cc4)oc4cc(O)cc(O)c4c3=O)[C@H](O[C@@H]3OC[C@@H](O)[C@H](O)[C@H]3O)[C@@H](O)[C@@H]2O)[C@H](O)[C@H](O)[C@H]1O [camelliaside B, kaempferol 3-O-(2-O-xylopyranosyl-6-O-rhamnopyranosyl)glucopyranoside]",–,oxidation of attached sugar and deglycosylation activity [3]: identified
"C[C@@H]1O[C@@H](OC[C@H]2O[C@@H](Oc3c(-c4ccc(O)cc4)oc4cc(O)cc(O)c4c3=O)[C@H](O[C@@H]3O[C@H](CO)[C@H](O)[C@H](O)[C@H]3O)[C@@H](O)[C@@H]2O)[C@H](O)[C@H](O)[C@H]1O [camelliaside A, kaempferol 3-O-(2-O-galactopyranosyl-6-O-rhamnopyranosyl)glucopyranoside]",–,oxidation of attached sugar and deglycosylation activity [3]: identified
